Assay results from patent US20050147670A1, “Oral disintegrating dosage forms” (IMPAX Laboratories Inc., priority 2002, published 2005).

Key:
[1] = Bioavailability study of 25/250 mg orally disintegrating tablets in healthy adult volunteers, fasting; assay type: in vivo; details: human, oral, Mean ± SD, 25/250 mg ODT, 36 healthy adult volunteers, plasma; for AUC(0-inf): read-out: AUCinf_obs
[2] = combination of carbidopa and levodopa, no entacapone; cited from earlier work

Structure (SMILES)	Cmax [1] [ng/mL]	Tmax [1] [h]	AUC(0-inf) [1] [ng·h/mL]	levodopa half-life without entacapone [2] [h]
C[C@@](Cc1ccc(O)c(O)c1)(NN)C(=O)O [Carbidopa]	98.5 ± 38.3	2.8 ± 1	560 ± 197	
N[C@@H](Cc1ccc(O)c(O)c1)C(=O)O [Levodopa, (−)-L-α-amino-β-(3,4-dihydroxybenzene) propanoic acid monohydrate]	1470 ± 567	1.7 ± 0.8	4480 ± 1580	1.3
